Tested on: E. coli
Assay: Resazurin fluorescence assay of E. coli mixed with ampicillin
Format: cell-based
Conditions: for fluorescence: 583 nm; for increase in fluorescence signal compared to resazurin alone: 4 hr incubation
Source text: In some examples, the metabolic indicator includes a fluorogenic compound. A non-limiting example of a fluorogenic compound that may be used as a metabolic indicator includes resazurin which is transformed to resorufin when mixed with living cells, such as with bacteria. […] Resorufin is fluorescent, which allows for monitoring the reaction. For example, resorufin is excited at around 540 nanometers (nm) and emits around 590 nm. Living cells, such as bacteria, may be mixed with resazurin for around one to four hours. For example, after incubation and to overcome the background signal, around 7×10^6 colony forming unit per milliliter (cfu/mL) of Escherichia coli may be present.
FIG. 2C illustrates the example apparatus 200 of FIG. 2A while the imaging device is capturing images of the substrate, in accordance with the present disclosure. As described with regards to FIG. 2B, the imaging device 215 may capture images at any point in time, and/or once a statiscially significant signal is detected. Also, as described with regards to FIG. 2A, resazurin reduction results in an increase in fluorescence. Accordingly, as bacterial concentration increases over time, more resazurin reduction results and the result is an increase in fluorescence. Antibiotic combinations that disrupt bacterial growth may therefore have less fluorescence than those combinations which have no effect. […] This conclusion may be obtained, because region 219-4, region 219-3, and region 219-2 each have a greater fluorescence level as compared to region 219-1, which is the result of more resazurin reduction by living cells (such as bacteria).
Background conversion of resazurin to resorufin (in absence of bacteria) can be calibrated out for increased sensitivity and reduction of assay time. Moreover, the minimum inhibitory concentration of the antibiotic (or antibiotic combination) can be measured, because the microfluidic device 211 is capable of dispensing very small volumes of reagents (e.g., antibiotics), as well as precise volumes of reagent combinations. The rate of fluorescence increase can be correlated to bacterial growth rate and thus the inhibition potential of a particular antibiotic can be measured, as illustrated in the graph included in FIG. 2C. This fluorescence readout may be obtained between 3 and 6 hours, and may thus be used for fast determination of combinations of antibiotics for antibiotic treatment.
As illustrated in the top portion of FIG. 6, a MIC test strip from Liofilchem® containing a gradient of ampicillin was applied on an agar plate coated with E. coli. The minimum inhibitory concentration of ampicillin was approximately 2 μg/mL. The E. coli was mixed with various concentrations of ampicillin (0 to 8 μg/mL) and resazurin, and the fluorescence was measured at various times. The concentrations of ampicillin used was 0 μg/mL, 0.25 μg/mL, 0.5 μg/mL, 1 μg/mL, 2 μg/mL, and 8 μg/mL. […] For the sample including E. coli and 8 μg/mL of ampicillin, the fluorescence increased from approximately 10,000 a.u. at 30 minutes, to approximately, 35,000 a.u. at 3 hours and 4 hours. For the sample including E. coli and 0 μg/mL of ampicillin, the fluorescence increased from approximately 10,000 a.u. at 30 minutes, to approximately, 50,000 a.u. at 3 hours and 10^5 a.u at 4 hours. For the sample including E. coli and 0.25 μg/mL of ampicillin, the fluorescence increased from approximately 10,000 a.u. at 30 minutes, to approximately 60,000 a.u. at 3 hours, and approximately 80,000 a.u. at 4 hours. For the sample including E. coli and 0.5 μg/mL of ampicillin, the fluorescence increased from approximately 10,000 a.u. at 30 minutes, to approximately 70,000 a.u. at 3 hours, and approximately 80,000 a.u. at 4 hours. For the sample including E. coli and 1 μg/mL of ampicillin, the fluorescence increased from approximately 10,000 a.u. at 30 minutes, to approximately 75,000 a.u. at 3 hours, and approximately 10^5 a.u. at 4 hours. […]

Which results are given for `CC1(C)S[C@@H]2[C@H](NC(=O)[C@H](N)c3ccccc3)C(=O)N2[C@H]1C(=O)O` [ampicillin]?
fluorescence (E. coli + 0.25 μg/mL ampicillin + resazurin, 30 minutes): approximately 10,000 a.u.; fluorescence (E. coli + 0.25 μg/mL ampicillin + resazurin, 3 hours): approximately 60,000 a.u.; fluorescence (E. coli + 0.25 μg/mL ampicillin + resazurin, 4 hours): approximately 80,000 a.u.; fluorescence (E. coli + 0.5 μg/mL ampicillin + resazurin, 30 minutes): approximately 10,000 a.u.; fluorescence (E. coli + 0.5 μg/mL ampicillin + resazurin, 3 hours): approximately 70,000 a.u.; fluorescence (E. coli + 0.5 μg/mL ampicillin + resazurin, 4 hours): approximately 80,000 a.u.; fluorescence (E. coli + 1 μg/mL ampicillin + resazurin, 30 minutes): approximately 10,000 a.u.; fluorescence (E. coli + 1 μg/mL ampicillin + resazurin, 3 hours): approximately 75,000 a.u.; fluorescence (E. coli + 2 μg/mL ampicillin + resazurin, 30 minutes): approximately 10,000 a.u.; fluorescence (E. coli + 2 μg/mL ampicillin + resazurin, 3 hours): approximately 75,000 a.u.; fluorescence (E. coli + 8 μg/mL ampicillin + resazurin, 30 minutes): approximately 10,000 a.u.; fluorescence (E. coli + 8 μg/mL ampicillin + resazurin, 3 hours): ~35,000 a.u.; fluorescence (E. coli + 8 μg/mL ampicillin + resazurin, 4 hours): ~35,000 a.u.; increase in fluorescence signal compared to resazurin alone ([ampicillin]<2 μg/mL): 6 ×; increase in fluorescence signal compared to resazurin alone (ampicillin 8 μg/mL): 2 ×
